This passage reports mortality results from US9549557B2, “Insecticidal synergistic combinations of phthaldiamide derivatives and fipronil or ethiprole” (BAYER CROPSCIENCE AKTIENGESELLSCHAFT, priority 2013, dated 2017).

The test system of test [1] is mustard beetle larvae (Phaedon cochleariae). Kind of test: Phaedon cochleariae - spray test. The conditions noted are these: 48 h. It counts as in vivo. The protocol: (§1) The expected efficacy of a given combination of two compounds is calculated as follows (see Colby, S. R., “Calculating Synergistic and antagonistic Responses of Herbicide Combinations”, Weeds 15, pp. 20-22, 1967):
(§2) • X is the efficacy expressed in % mortality of the untreated control for test compound A at a concentration of m ppm respectively m g/ha, • Y is the efficacy expressed in % mortality of the untreated control for test compound B at a concentration of n ppm respectively n g/ha, • E is the efficacy expressed in % mortality of the untreated control using the mixture of A and B at m and n ppm respectively m and n g/ha, then is
(§3) If the observed insecticidal efficacy of the combination is higher than the one calculated as “E”, then the combination of the two compounds is more than additive, i.e., there is a synergistic effect.
Solvent: 78.0 parts by weight of acetone
• 1.5 parts by weight of dimethylformamide Emulsifier: 0.5 parts by weight of alkylaryl polyglycolether To produce a suitable preparation of active compound, 1 part by weight of active compound is mixed with the stated amount of solvent and emulsifier, and the concentrate is diluted with emulsifier-containing water to the desired concentration. To produce a suitable preparation of a spore suspension the spores are diluted with emulsifier-containing water to the desired concentration.
Chinese cabbage (Brassica pekinensis) leaf-disks are sprayed with a preparation of the active ingredient of the desired concentration. Once dry, the leaf disks are infested with mustard beetle larvae (Phaedon cochleariae).
After the specified period of time, mortality in % is determined. 100% means all beetle larvae have been killed and 0% means none of the beetle larvae have been killed. The mortality values determined thus are recalculated using the Colby-formula (see sheet 1).

Test [2] has as its system larvae of the diamondback moth (Plutella xylostella). Kind of test: Plutella xylostella - spray test. It counts as in vivo. The conditions noted are these: 48 h, read-out: Efficacy in % after 2 d (mortality). Here is the method: as §1, §2, §3
Solvent: 7 parts by weight of dimethylformamide
Emulsifier: 2 parts by weight of alkylaryl polyglycolether […]
After the specified period of time, the mortality in % is determined. […] The mortality values determined thus are recalculated using the Colby-formula (see sheet 1).

[3] abbreviates: read-out: Efficacy in % after 2 d (mortality).

As to `Cc1cc(C(F)(C(F)(F)F)C(F)(F)F)ccc1NC(=O)c1cccc(Cl)c1C(=O)NC(C)(C)C#N` [(I-5)], the mortality at 6 g/ha in test [1] (6 g ai/ha, after 2 d, Table A-2, read-out: Efficacy in % after 2 d (mortality)) came out at 0%. The mortality at 12 g/ha in test [1] (12 g ai/ha, after 2 d, Table A-2, read-out: Efficacy in % after 2 d (mortality)) is 0%. Further, the mortality at 4 g/ha in test [1] (foliar, 4 g ai/ha, Chinese cabbage leaf disks sprayed, after 2 d, Table A-1, read-out: Efficacy in % after 2 d (mortality)) stood at 0%. In addition, the mortality at 0.0625 ppm in test [2] (0.0625 ppm, cabbage leaves sprayed, after 2 d) turned out to be 0%.

As for `CC[S+]([O-])c1c(C#N)nn(-c2c(Cl)cc(C(F)(F)F)cc2Cl)c1N` (centres unmarked) [Ethiprole (II-2), ethiprole], the mortality at 1.2 g/ha in test [1] (setting [3]) came out at 33%. Further, in test [1] (in Brassica rapa, foliar, read-out: Efficacy in % after 2 d (mortality)), the mortality at 0.8 g/ha was found to be 50%.

As for `N#Cc1nn(-c2c(Cl)cc(C(F)(F)F)cc2Cl)c(N)c1[S+]([O-])C(F)(F)F` (centres unmarked) [Fipronil, fipronil], in test [1] (setting [3]), the mortality at 0.3 g/ha is 0%. Moreover, the mortality at 0.125 ppm in test [2] (in Brassica oleracea) was found to be 45%.

For orientation: mortality means the percentage killed.
